Results as given in patent publication US20240228481A1, “NOVEL SULFONAMIDE SERIES OF QR2 INHIBITORS TO TACKLE OXIDATIVE STRESS AND COGNITIVE DECLINE” (CARMEL HAIFA UNIVERSITY ECONOMIC CORPORATION LTD., priority 2021, published 2024).
Counter-ions that a name gives are not always drawn.

How the values were obtained:
5×FAD mice [1] = test: Open field in 5×FAD mice; type: in vivo, mouse
Procedure: Mice were individually placed within a cage and taken to a dimly lit room containing an open field arena 50×50 cm in size. They were given 10 min prior to being placed within the arena, where for a period of 5 min they were allowed to explore. Two weeks later, this was repeated. […] The floor was either white or black, depending on mouse coat color, to allow automatic analysis of movement parameters, apart from rearing which was manually counted.

in vitro = settings: human
5×FAD mice [2] = test: Immunohistochemistry of CA1 in 5×FAD mice (4-HNE, amyloid β, p-Tau, Iba1); type: in vivo, mouse; settings: 1 month drinking
Procedure: A week after the completion of all behavioral experiments, 5×FAD mice were anesthetized with isoflurane, and once fully anesthetized, were transcardially perfused with 4% paraformaldehyde (PFA), dilutes in […] phosphate buffered saline (PBS, Sigma-Aldrich). Brains were then briefly removed and placed in chilled, 4% PFA for 48 h, followed by immersion in 30% sucrose in 0.1 M PBS for a further 48 h. Brains were then stored at −80° C., until they were sliced into 40 μm coronal sections using a Leica CM 1950 cryostat. Slices were then washed ×3 in PBS and blocked for 1 h at RT using 10% normal donkey serum (DNS) and 0.2% triton (Sigma-Aldrich) in PBS. Antibodies, including 4-HNE (1:500, AbCam, ab48506), Iba1 (1:2,000, AbCam, ab5076), phospho-tau (1:1,000, Thermo, MN1020) and amyloid R (1:1,000, AbCam, ab201060) diluted in PBS with 10% DNS were incubated at 4° C. overnight. The next day, the slices were washed ×3 times in PBS, and secondary antibodies including donkey anti goat Alexa Fluor 568 (AbCam, ab175704), donkey anti-mouse Cy 5 (Jackson Immuno Research, 715-175-151) and donkey anti-rabbit DyLight 488 (AbCam, ab98488) all diluted 1:500 in PBS with 1% BSA, were applied to the slices at RT for 2 h. Following the incubation, the slices were washed ×3 times in PBS, mounted onto glass slides, were uniformly covered in DAPI containing Vectashield (H-1200) and coverslips were added. Images were then taken using a confocal microscope (Olympus IX83), with identical acquisition parameters across every sample per antibody. Three slices were used per mouse per antibody, with images taken of dorsal CA1 (Bregma: −1.58 mm to −2.30 mm; with each antibody having a slice from anterior, medial and posterior regions of this range) using a ×20 objective, acquiring two 800×800 pixel images over as many Z levels possible per slice (Z-stack of the whole section). Analysis of the images was done blind, using Imaris (Bitplane) software. Surface reconstruction module was used to extract the data as volumes and signal intensities. Marker volume or intensity were normalized to the corresponding brain volume. This was done in order to normalize the marker volumes to variations in Z-stack volumes and/or changes to shape and size that needed to be performed during analysis due to debris, vasculature, corpus callosum elimination, or any other obstructions or changes in shape. The normalized value was averaged for each triplicate.
Following the completion of behavioral experiments, the inventors wished to assess brain pathologies associated with AD present in the 5×FAD mice used. Therefore, 5 days following the completion of the last behavioral experiment, and 1 month following the start of YB-537 consumption, all the mice were sacrificed and coronal sections of their fixed brains were made and used for immunohistochemistry. Since the CA1 region of the hippocampus is affected early on in the pathogenesis of AD, and this brain region is involved in the behavioral paradigms used here, the inventors acquired images of CA1. This was done with an Olympus IX83 confocal microscope using the same settings, antibodies and exposures (all slices and samples were prepared by the same experimenter and all images taken by the same experimenter) in all mice and a separate blind experimenter, unaware of the experimental conditions or details, measured and analyzed the signal detected using Imaris (Bitplane) software (see methods). For each mouse, three coronal sections were used per antibody. In each section, the same region of CA1 was acquired, using the same image frame size and resolution, at all possible depths of the section (Z-stack of the whole section), to allow measurement of the fluorescent antibody marker volume, which was normalized to the brain volume from which it was taken. First, the inventors measured oxidative stress, as indicated by lipid peroxidation product, 4-Hydroxynonenal (4-HNE, antibody: AbCam, ab48506). […]

Solubility in water = type: physicochemical; settings: HCl salt
Text: In order to enable water-solubility so that an inhibitor could be easily applied to crystalized QR2, and to enable oral administration of the inhibitor and eliminate undesirable formulations, HCl was conjugated to YB-537 (see step 6 in methods section ‘Synthesis of Novel QR2 Inhibitors’ and Table 3). […] Using the water-soluble YB-537 to determine ligand-target interactions, purified human QR2 was co-crystalized in the presence of the inhibitor (FIG. 3A). […] YB-537 is bound to each of the monomers, and interacts with amino acids from both monomers, as well as with FAD. The plane of YB-537 stacks up parallel to the isoalloxazine ring of the FAD and the average distance between the planes of the two rings is 3.5 Å. Each FAD moiety forms 17 contacts within 3.5 Å to atoms from YB-537 and 48 contacts to 17 amino acids from one monomer, namely—H12, S17, F18, N19, S21, P103, L104, Y105, W106, F107, T148, T149, G150, G151, Y156, E194, and R201. YB-537 binds to the catalytic site through a series of hydrophobic and hydrogen bonds with both FAD and amino acids from both QR2 monomers, in a manner unique to it (FIG. 3B). Specifically, YB-537 forms 6 contacts to G150, G151, M155 and a hydrogen bond with N162 from one monomer (A) and 8 contacts to F127, 1129, F132, and F179 from the other monomer (B).

5×FAD mice [3] = test: Delay fear conditioning in 5×FAD mice
Procedure: Mice are transported to the conditioning room, which is lit by red light only, and kept there for 2 min. They were then placed inside a Habitest Operant Cage, within a Habitest Isolation Cubicle (Coulbourn), on a modular shock floor made of 16 metal grids, connected to Precision Animal Shockers (Coulbourn) with illumination inside the cage coming from a 20 W bulb. The mice were given 2 min to explore, during which baseline freezing was measured. Then, a 20 s, 4 kHz, 80 dB tone was given, co-terminating with the start of a 2 s, 0.5 mA foot-shock, which was repeated a further two times, each having 1 min interval. Following the third, and last of these bouts, 1 min was given prior to the animals being removed from the chambers. The next day, the animals were returned to the room under the same conditions, and were placed back into the chambers, and freezing to the context was measured over the course of 5 min. The next day, the mice were once again returned to the conditioning room, except the room was lit with white light, while the chambers were darkened, the chamber floor was covered with a flat, smooth plastic cover, one of the walls was fitted with a paper sticker and the chamber was scented with diluted (10%) window cleaner (Sano). In this unfamiliar context, the protocol from the first day was repeated, except without the foot-shocks. Freezing for the cue was recorded during the tone. All measurements were taken with a Sentec stc-tb33usb-at camera, and analysis was performed with Freeze Frame software (Actimetrics).

In the case of Cc1ccc(-c2cn3cccc(C)c3n2)cc1S(=O)(=O)N1CCNCC1 [YB-537, 8-methyl-2-(4-methyl-3-(piperazin-1-ylsulfonyl)phenyl)imidazo[1,2-a]pyridine hydrochloride], the average velocity (5×FAD mice [1]; 5×FAD both sexes) is reported as 10.9 ± 0.800 cm/s, the hind-limb rearing frequency (5×FAD mice [1]; 5×FAD both sexes) is reported as 35.72±3.292 and the “maximum movement bout duration” value (5×FAD mice [1]; 5×FAD both sexes) is reported as 8.061 ± 1.322 s. For the same compound, the meandering (5×FAD mice [1]; 5×FAD both sexes) was 733.4±42.8 deg/cm, the “proportion of time moving” value (5×FAD mice [1]; 5×FAD both sexes) was 81.44±1.134% and the total distance traveled (5×FAD mice [1]; 5×FAD both sexes) was 3244±237.9 cm. The total movement duration (5×FAD mice [1]; 5×FAD both sexes) was 244.3 ± 3.402 s, the average velocity (5×FAD mice [1]; 5×FAD females) was 12.03 ± 1.625 cm/s and the hind-limb rearing frequency (5×FAD mice [1]; 5×FAD females) was 35.29±4.894. For the same compound, the “maximum movement bout duration” value (5×FAD mice [1]; 5×FAD females) was 9.677 ± 3.012 s, the meandering (5×FAD mice [1]; 5×FAD females) was 696.3±65.26 deg/cm and the “proportion of time moving” value (5×FAD mice [1]; 5×FAD females) was 81.84±1.856%. The total distance traveled (5×FAD mice [1]; 5×FAD females) was 3581±484.5 cm, the total movement duration (5×FAD mice [1]; 5×FAD females) was 245.5 ± 5.568 s and the average velocity (5×FAD mice [1]; 5×FAD males) was 10.01 ± 0.611 cm/s. For the same compound, the hind-limb rearing frequency (5×FAD mice [1]; 5×FAD males) was 36.06±4.703, the “maximum movement bout duration” value (5×FAD mice [1]; 5×FAD males) was 6.804 s and the meandering (5×FAD mice [1]; 5×FAD males) was 762.2±58.17 deg/cm. The “proportion of time moving” value (5×FAD mice [1]; 5×FAD males) was 81.13±1.5%, the total distance traveled (5×FAD mice [1]; 5×FAD males) was 2983±179.3 cm and the total movement duration (5×FAD mice [1]; 5×FAD males) was 243.4 ± 4.5 s. The IC50 at 72 h (in vitro) was greater than 99 µM, the “4-HNE volume normalized to μm^3 of brain, CA1” value (5×FAD mice [2]; 5×FAD females) was 0.053±0.005 and the “4-HNE volume normalized to μm^3 of brain, CA1” value (5×FAD mice [2]; 5×FAD males) was 0.053±0.005. For the same compound, the “Amyloid β volume normalized to μm^3 of brain, CA1” value (5×FAD mice [2]; 5×FAD males) was 0.038±0.004, the “Volume of Iba1 normalized to μm^3 of brain, CA1” value (5×FAD mice [2]; 5×FAD males) was 0.038±0.003 and the “Volume of p-Tau normalized to μm^3 of brain, CA1” value (5×FAD mice [2]; 5×FAD males) was 0.064±0.006. The “sum of the intensity of Iba1 positive signal normalized to μm^3 of brain, CA1” value (5×FAD mice [2]; 5×FAD males) was 74.09±6.198, the “Volume of Iba1 normalized to μm^3 of brain, CA1” value (5×FAD mice [2]; 5×FAD total population) was 0.032±0.002 and the “sum of the intensity of Iba1 positive signal normalized to μm^3 of brain, CA1” value (5×FAD mice [2]; 5×FAD total population) was 63.57±5.251. The solubility in water (Solubility in water) was “complete solution”, the “freezing in response to the conditioned cue” value (5×FAD mice [3]; 5×FAD both sexes) was 16.47±1.689% and the “freezing in response to the conditioned cue” value (5×FAD mice [3]; 5×FAD females) was 12.66±1.739%. For the same compound, the “baseline freezing in conditioning chambers” value (5×FAD mice [3]; 5×FAD males) was 0.642±0.408%, the “freezing in response to the conditioned context” value (5×FAD mice [3]; 5×FAD males) was 39.51±2.666% and the “freezing in response to the conditioned cue” value (5×FAD mice [3]; 5×FAD males) was 19.43±2.289%.
